# Measured values published in publication PMC9571063 (Molecules, 2022).
# Experiments:
# TGFBR1 = molecular target: T1, TGFBR1 (Homo sapiens, UniProt P36897); assay: KINOMEscan; format: binding; conditions: read-out: Percent Control
# T1 construct: purchased Eurofins DiscoverX KINOMEscan (scanMAX 468)
# LZK = molecular target: T2, LZK (Homo sapiens, UniProt O43283); assay: KINOMEscan; format: binding; conditions: read-out: Percent Control
# T2 construct: purchased Eurofins DiscoverX KINOMEscan (scanMAX 468)
# SBK1 = molecular target: T3, SBK1 (Homo sapiens, UniProt Q52WX2); assay: KINOMEscan; format: binding; conditions: read-out: Percent Control
# T3 construct: purchased Eurofins DiscoverX KINOMEscan (scanMAX 468)
# p38-alpha = molecular target: T4, p38-alpha (Homo sapiens, UniProt Q16539); assay: KINOMEscan; format: binding; conditions: read-out: Percent Control
# T4 construct: purchased Eurofins DiscoverX KINOMEscan (scanMAX 468)
# CDK3 = molecular target: T5, CDK3 (Homo sapiens, UniProt Q00526); assay: KINOMEscan; format: binding; conditions: read-out: Percent Control
# T5 construct: purchased Eurofins DiscoverX KINOMEscan (scanMAX 468)
# WEE2 = molecular target: T6, WEE2 (Homo sapiens, UniProt P0C1S8); assay: KINOMEscan; format: binding; conditions: read-out: Percent Control
# T6 construct: purchased Eurofins DiscoverX KINOMEscan (scanMAX 468)
# [1] = molecular target: T7, RSK4(Kin.Dom.2-C-terminal) (Homo sapiens, UniProt Q9UK32); assay: KINOMEscan; format: binding; conditions: read-out: Percent Control
# T7 construct: RSK4(Kin.Dom.2-C-terminal); purchased Eurofins DiscoverX KINOMEscan (scanMAX 468)
# FGFR3(G697C) = molecular target: T8, FGFR3(G697C) (Homo sapiens, UniProt P22607, G697C); assay: KINOMEscan; format: binding; conditions: read-out: Percent Control
# T8 construct: purchased Eurofins DiscoverX KINOMEscan (scanMAX 468)
# MDA-MB-231 = tested on: MDA-MB-231; design: method as in ref 14 (a number printed in a supplementary file, which may have a reference list of its own: not looked up in the article's list); conditions: DB18[a], footnote not given; read-out: Cytotoxic studies IC50 MDA-MB-231; cited from earlier work
# SGK = molecular target: T9, SGK (Homo sapiens, UniProt O00141); assay: KINOMEscan; format: binding; conditions: read-out: Percent Control
# T9 construct: purchased Eurofins DiscoverX KINOMEscan (scanMAX 468)
# CSNK1G1 = molecular target: T10, CSNK1G1 (Homo sapiens, UniProt Q9HCP0); assay: KINOMEscan; format: binding; conditions: read-out: Percent Control
# T10 construct: purchased Eurofins DiscoverX KINOMEscan (scanMAX 468)
# PRKR = molecular target: T11, PRKR (Homo sapiens, UniProt P19525); assay: KINOMEscan; format: binding; conditions: read-out: Percent Control
# T11 construct: purchased Eurofins DiscoverX KINOMEscan (scanMAX 468)
# TAOK1 = molecular target: T12, TAOK1 (Homo sapiens, UniProt Q7L7X3); assay: KINOMEscan; format: binding; conditions: read-out: Percent Control
# T12 construct: purchased Eurofins DiscoverX KINOMEscan (scanMAX 468)
# T12 sequence (Q7L7X3 whole entry): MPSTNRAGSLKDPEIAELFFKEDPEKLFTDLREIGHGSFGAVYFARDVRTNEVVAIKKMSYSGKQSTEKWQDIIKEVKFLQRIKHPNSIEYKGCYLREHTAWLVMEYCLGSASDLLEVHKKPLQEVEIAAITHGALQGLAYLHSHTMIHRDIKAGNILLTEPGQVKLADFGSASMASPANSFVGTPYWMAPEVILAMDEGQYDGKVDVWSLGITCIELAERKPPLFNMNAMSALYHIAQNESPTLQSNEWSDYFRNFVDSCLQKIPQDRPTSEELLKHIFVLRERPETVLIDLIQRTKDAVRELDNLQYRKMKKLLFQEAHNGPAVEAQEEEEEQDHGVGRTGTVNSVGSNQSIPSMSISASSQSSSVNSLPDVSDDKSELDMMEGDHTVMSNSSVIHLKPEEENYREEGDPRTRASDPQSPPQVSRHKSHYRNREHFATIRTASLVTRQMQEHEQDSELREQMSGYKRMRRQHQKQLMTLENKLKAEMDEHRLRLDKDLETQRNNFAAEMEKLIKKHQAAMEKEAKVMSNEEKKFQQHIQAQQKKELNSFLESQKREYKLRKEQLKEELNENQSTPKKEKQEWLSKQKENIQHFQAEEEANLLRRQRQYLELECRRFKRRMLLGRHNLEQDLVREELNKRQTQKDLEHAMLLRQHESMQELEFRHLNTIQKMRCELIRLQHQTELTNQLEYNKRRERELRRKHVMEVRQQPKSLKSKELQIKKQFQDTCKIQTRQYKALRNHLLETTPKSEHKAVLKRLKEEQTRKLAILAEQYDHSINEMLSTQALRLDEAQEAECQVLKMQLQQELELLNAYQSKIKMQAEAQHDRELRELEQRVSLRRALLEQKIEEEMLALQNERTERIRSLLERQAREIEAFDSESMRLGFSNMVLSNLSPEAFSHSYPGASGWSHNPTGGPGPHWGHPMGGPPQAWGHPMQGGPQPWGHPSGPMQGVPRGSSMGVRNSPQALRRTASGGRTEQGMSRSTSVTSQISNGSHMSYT
# PRKCE = molecular target: T13, PRKCE (Homo sapiens, UniProt Q02156); assay: KINOMEscan; format: binding; conditions: read-out: Percent Control
# T13 construct: purchased Eurofins DiscoverX KINOMEscan (scanMAX 468)
# T13 sequence (Q02156 whole entry): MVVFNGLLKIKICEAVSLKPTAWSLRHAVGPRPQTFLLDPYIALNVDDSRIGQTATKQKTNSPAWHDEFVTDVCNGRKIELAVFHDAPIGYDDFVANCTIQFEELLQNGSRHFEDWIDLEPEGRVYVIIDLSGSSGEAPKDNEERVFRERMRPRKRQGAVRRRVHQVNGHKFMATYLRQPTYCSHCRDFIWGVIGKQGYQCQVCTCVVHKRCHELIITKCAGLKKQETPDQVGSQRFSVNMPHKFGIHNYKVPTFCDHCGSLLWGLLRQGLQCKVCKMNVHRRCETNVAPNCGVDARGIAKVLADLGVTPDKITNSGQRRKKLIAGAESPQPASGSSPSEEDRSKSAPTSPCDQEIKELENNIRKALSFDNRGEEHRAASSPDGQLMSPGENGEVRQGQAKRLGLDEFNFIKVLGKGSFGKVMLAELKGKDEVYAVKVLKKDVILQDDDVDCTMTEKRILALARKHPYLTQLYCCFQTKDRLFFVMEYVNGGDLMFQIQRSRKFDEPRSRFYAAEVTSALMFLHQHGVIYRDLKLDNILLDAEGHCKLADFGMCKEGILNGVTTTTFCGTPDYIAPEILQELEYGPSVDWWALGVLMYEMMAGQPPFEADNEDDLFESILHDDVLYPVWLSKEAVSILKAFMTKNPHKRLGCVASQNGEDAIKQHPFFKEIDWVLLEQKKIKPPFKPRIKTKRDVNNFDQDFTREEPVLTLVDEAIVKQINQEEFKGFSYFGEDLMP
# [2] = molecular target: T14, ABL1(Q252H)-phosphorylated (Homo sapiens, UniProt P00519, Q252H); assay: KINOMEscan; format: binding; conditions: read-out: Percent Control
# T14 construct: purchased Eurofins DiscoverX KINOMEscan (scanMAX 468)
# [3] = molecular target: T15, RPS6KA5(Kin.Dom.1-N-terminal) (Homo sapiens, UniProt O75582); assay: KINOMEscan; format: binding; conditions: read-out: Percent Control
# T15 construct: RPS6KA5(Kin.Dom.1-N-terminal); purchased Eurofins DiscoverX KINOMEscan (scanMAX 468)
# [4] = molecular target: T16, TYK2(JH2domain-pseudokinase) (Homo sapiens, UniProt P29597); assay: KINOMEscan; format: binding; conditions: read-out: Percent Control
# T16 construct: TYK2(JH2domain-pseudokinase); purchased Eurofins DiscoverX KINOMEscan (scanMAX 468)
# MEK6 = molecular target: T17, MEK6 (Homo sapiens, UniProt P52564); assay: KINOMEscan; format: binding; conditions: read-out: Percent Control
# T17 construct: purchased Eurofins DiscoverX KINOMEscan (scanMAX 468)
# EGFR(E746-A750del) = molecular target: T18, EGFR(E746-A750del) (Homo sapiens, UniProt P00533, DEL746-750); assay: KINOMEscan; format: binding; conditions: read-out: Percent Control
# T18 construct: purchased Eurofins DiscoverX KINOMEscan (scanMAX 468)
# T18 sequence (P00533 with tags, fused parts or gaps DEL746-750 limits assumed): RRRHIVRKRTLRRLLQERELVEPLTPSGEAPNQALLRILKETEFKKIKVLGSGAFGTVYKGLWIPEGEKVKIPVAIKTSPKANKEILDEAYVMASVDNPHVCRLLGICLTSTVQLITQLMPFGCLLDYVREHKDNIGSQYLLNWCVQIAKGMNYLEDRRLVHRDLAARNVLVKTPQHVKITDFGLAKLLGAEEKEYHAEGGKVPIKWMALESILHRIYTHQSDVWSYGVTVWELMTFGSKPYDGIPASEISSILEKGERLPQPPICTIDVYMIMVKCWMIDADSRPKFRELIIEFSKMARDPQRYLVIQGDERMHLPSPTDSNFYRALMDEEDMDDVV
# WNK4 = molecular target: T19, WNK4 (Homo sapiens, UniProt Q96J92); assay: KINOMEscan; format: binding; conditions: read-out: Percent Control
# T19 construct: purchased Eurofins (KINOMEscan, DiscoverX)
# PIK3CG = molecular target: T20, PIK3CG (Homo sapiens, UniProt P48736); assay: KINOMEscan; format: binding; conditions: read-out: Percent Control
# T20 construct: purchased Eurofins DiscoverX KINOMEscan (scanMAX 468)
# BLK = molecular target: T21, BLK (Homo sapiens, UniProt P51451); assay: KINOMEscan; format: binding; conditions: read-out: Percent Control
# T21 construct: purchased Eurofins DiscoverX KINOMEscan (scanMAX 468)
# T21 sequence (P51451 whole entry): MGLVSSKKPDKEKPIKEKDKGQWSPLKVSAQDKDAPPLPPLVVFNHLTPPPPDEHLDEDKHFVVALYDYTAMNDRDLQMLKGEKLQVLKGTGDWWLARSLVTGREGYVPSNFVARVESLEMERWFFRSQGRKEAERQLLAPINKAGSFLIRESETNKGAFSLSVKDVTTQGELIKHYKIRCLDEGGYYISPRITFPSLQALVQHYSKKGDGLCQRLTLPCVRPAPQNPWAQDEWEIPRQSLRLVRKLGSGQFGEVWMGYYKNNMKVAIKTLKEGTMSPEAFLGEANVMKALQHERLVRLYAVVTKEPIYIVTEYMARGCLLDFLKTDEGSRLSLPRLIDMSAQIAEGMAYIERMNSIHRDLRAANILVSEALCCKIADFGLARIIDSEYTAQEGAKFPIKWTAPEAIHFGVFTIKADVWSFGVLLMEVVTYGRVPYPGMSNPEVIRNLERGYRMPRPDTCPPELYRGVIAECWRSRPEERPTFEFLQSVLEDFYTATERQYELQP
# JNK2 = molecular target: T22, JNK2 (Homo sapiens, UniProt P45984); assay: KINOMEscan; format: binding; conditions: read-out: Percent Control
# T22 construct: purchased Eurofins DiscoverX KINOMEscan (scanMAX 468)
# T22 sequence (P45984 whole entry): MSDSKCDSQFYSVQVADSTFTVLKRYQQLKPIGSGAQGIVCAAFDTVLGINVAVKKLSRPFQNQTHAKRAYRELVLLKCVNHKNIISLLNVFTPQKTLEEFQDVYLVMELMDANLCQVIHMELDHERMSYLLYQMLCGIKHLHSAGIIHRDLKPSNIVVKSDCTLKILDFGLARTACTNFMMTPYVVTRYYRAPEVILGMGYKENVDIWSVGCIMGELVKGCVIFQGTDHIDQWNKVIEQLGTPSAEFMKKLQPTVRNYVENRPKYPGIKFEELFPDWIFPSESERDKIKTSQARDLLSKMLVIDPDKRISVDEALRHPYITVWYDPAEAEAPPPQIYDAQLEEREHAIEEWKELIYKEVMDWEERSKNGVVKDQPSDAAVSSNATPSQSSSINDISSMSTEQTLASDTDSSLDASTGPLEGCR
# EGFR(L861Q) = molecular target: T23, EGFR(L861Q) (Homo sapiens, UniProt P00533, L861Q); assay: KINOMEscan; format: binding; conditions: read-out: Percent Control
# T23 construct: purchased Eurofins DiscoverX KINOMEscan (scanMAX 468)
# CAMK1G = molecular target: T24, CAMK1G (Homo sapiens, UniProt Q96NX5); assay: KINOMEscan; format: binding; conditions: read-out: Percent Control
# T24 construct: purchased Eurofins DiscoverX KINOMEscan (scanMAX 468)
# p38-gamma = molecular target: T25, p38-gamma (Homo sapiens, UniProt P53778); assay: KINOMEscan; format: binding; conditions: read-out: Percent Control
# T25 construct: purchased Eurofins DiscoverX KINOMEscan (scanMAX 468)
# T25 sequence (P53778 whole entry): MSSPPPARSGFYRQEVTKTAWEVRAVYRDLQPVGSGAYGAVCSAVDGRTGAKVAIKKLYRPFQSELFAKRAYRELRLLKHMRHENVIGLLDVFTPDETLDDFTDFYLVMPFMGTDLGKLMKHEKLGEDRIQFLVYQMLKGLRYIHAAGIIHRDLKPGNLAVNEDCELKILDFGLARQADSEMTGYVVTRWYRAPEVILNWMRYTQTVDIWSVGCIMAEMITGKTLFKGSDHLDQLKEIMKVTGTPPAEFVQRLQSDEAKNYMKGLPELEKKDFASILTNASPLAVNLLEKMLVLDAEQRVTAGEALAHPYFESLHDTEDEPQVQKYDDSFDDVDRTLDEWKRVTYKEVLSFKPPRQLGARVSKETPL
# PAK2 = molecular target: T26, PAK2 (Homo sapiens, UniProt Q13177); assay: KINOMEscan; format: binding; conditions: read-out: Percent Control
# T26 construct: purchased Eurofins DiscoverX KINOMEscan (scanMAX 468)
# ERK1 = molecular target: T27, ERK1 (Homo sapiens, UniProt P27361); assay: KINOMEscan; format: binding; conditions: read-out: Percent Control
# T27 construct: purchased Eurofins DiscoverX KINOMEscan (scanMAX 468)
# T27 sequence (P27361 whole entry): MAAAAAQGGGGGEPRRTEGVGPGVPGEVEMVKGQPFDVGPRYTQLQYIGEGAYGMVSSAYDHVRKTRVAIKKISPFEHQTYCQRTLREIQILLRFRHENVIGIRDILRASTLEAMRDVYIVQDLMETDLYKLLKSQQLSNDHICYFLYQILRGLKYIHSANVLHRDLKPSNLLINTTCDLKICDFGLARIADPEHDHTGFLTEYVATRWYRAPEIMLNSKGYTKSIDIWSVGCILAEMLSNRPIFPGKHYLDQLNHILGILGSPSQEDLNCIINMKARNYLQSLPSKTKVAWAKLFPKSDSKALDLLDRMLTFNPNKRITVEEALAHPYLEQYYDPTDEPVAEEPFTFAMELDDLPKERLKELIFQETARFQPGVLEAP
# EPHB1 = molecular target: T28, EPHB1 (Homo sapiens, UniProt P54762); assay: KINOMEscan; format: binding; conditions: read-out: Percent Control
# T28 construct: purchased Eurofins DiscoverX KINOMEscan (scanMAX 468)
# PAK6 = molecular target: T29, PAK6 (Homo sapiens, UniProt Q9NQU5); assay: KINOMEscan; format: binding; conditions: read-out: Percent Control
# T29 construct: purchased Eurofins DiscoverX KINOMEscan (scanMAX 468)
# EPHA6 = molecular target: T30, EPHA6 (Homo sapiens, UniProt Q9UF33); assay: KINOMEscan; format: binding; conditions: read-out: Percent Control
# T30 construct: purchased Eurofins DiscoverX KINOMEscan (scanMAX 468)
# SRPK3 = molecular target: T31, SRPK3 (Homo sapiens, UniProt Q9UPE1); assay: KINOMEscan; format: binding; conditions: read-out: Percent Control
# T31 construct: purchased Eurofins DiscoverX KINOMEscan (scanMAX 468)
# MLK3 = molecular target: T32, MLK3 (Homo sapiens, UniProt Q16584); assay: KINOMEscan; format: binding; conditions: read-out: Percent Control
# T32 construct: purchased Eurofins DiscoverX KINOMEscan (scanMAX 468)
# FGFR3 = molecular target: T33, FGFR3 (Homo sapiens, UniProt P22607); assay: KINOMEscan; format: binding; conditions: read-out: Percent Control
# T33 construct: purchased Eurofins DiscoverX KINOMEscan (scanMAX 468)
# T33 sequence (P22607 23-806): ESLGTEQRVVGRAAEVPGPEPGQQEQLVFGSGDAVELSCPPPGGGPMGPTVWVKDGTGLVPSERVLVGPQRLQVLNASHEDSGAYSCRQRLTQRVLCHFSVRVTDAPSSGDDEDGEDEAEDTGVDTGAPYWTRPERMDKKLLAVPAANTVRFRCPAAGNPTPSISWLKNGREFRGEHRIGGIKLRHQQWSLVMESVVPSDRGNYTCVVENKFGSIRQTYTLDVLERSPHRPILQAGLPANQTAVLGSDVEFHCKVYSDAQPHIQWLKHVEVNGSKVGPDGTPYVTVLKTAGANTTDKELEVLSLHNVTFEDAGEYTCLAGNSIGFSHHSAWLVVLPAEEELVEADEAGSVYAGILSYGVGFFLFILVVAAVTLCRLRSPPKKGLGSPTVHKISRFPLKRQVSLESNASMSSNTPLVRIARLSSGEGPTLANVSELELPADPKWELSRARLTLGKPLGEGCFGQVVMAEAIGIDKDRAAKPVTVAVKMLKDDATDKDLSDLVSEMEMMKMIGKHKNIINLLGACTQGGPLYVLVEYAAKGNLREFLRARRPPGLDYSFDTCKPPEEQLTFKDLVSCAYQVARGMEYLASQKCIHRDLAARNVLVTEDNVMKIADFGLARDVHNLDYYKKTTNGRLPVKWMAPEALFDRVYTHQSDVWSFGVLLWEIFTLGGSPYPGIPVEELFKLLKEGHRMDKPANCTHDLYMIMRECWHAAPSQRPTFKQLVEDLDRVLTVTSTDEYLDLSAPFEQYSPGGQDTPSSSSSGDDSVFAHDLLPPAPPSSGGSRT
# FLT3(ITD,D835V) = assay: KINOMEscan; format: binding, human; conditions: 1 μM
# AKT1 = molecular target: T34, AKT1 (Homo sapiens, UniProt P31749); assay: KINOMEscan; format: binding; conditions: read-out: Percent Control
# T34 construct: purchased Eurofins DiscoverX KINOMEscan (scanMAX 468)
# JNK3 = molecular target: T35, JNK3 (Homo sapiens, UniProt P53779); assay: KINOMEscan; format: binding; conditions: read-out: Percent Control
# T35 construct: purchased Eurofins DiscoverX KINOMEscan (scanMAX 468)
# MET(M1250T) = molecular target: T36, MET(M1250T) (Homo sapiens, UniProt P08581, M1250T); assay: KINOMEscan; format: binding; conditions: read-out: Percent Control
# T36 construct: purchased Eurofins DiscoverX KINOMEscan (scanMAX 468)
# CDK2 = molecular target: T37, CDK2 (Homo sapiens, UniProt P24941); assay: KINOMEscan; format: binding; conditions: read-out: Percent Control
# T37 construct: purchased Eurofins DiscoverX KINOMEscan (scanMAX 468)
# T1 sequence (P36897 34-503): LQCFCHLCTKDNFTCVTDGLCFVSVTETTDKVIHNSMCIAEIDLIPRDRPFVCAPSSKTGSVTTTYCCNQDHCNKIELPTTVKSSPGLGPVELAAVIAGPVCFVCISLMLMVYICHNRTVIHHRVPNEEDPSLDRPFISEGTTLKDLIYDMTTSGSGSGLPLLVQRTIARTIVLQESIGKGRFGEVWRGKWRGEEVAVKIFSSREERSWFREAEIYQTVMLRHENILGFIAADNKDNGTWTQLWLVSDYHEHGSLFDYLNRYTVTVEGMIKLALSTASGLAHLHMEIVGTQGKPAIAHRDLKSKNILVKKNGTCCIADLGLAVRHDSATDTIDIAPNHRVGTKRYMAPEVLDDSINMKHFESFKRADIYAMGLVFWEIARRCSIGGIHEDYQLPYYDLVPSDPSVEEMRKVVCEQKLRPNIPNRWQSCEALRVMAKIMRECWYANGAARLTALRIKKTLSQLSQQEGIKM
smiles,measurement,setting,value
Cc1ccc(-n2cc(COc3cccc4cnc(Nc5cccc(Cl)c5)nc34)nn2)c([N+](=O)[O-])c1 [DB18],remaining binding at 1 µM,TGFBR1,100%
same,remaining binding at 1 µM,LZK,100%
same,remaining binding at 1 µM,SBK1,100%
same,remaining binding at 1 µM,p38-alpha,100%
same,remaining binding at 1 µM,CDK3,100%
same,remaining binding at 1 µM,WEE2,100%
same,remaining binding at 1 µM,[1],100%
same,remaining binding at 1 µM,FGFR3(G697C),97%
same,IC50,MDA-MB-231,> 25 µM
same,remaining binding at 1 µM,SGK,100%
same,remaining binding at 1 µM,CSNK1G1,100%
same,remaining binding at 1 µM,PRKR,97%
same,remaining binding at 1 µM,TAOK1,100%
same,remaining binding at 1 µM,PRKCE,100%
same,remaining binding at 1 µM,[2],100%
same,remaining binding at 1 µM,[3],100%
same,remaining binding at 1 µM,[4],100%
same,remaining binding at 1 µM,MEK6,99%
same,remaining binding at 1 µM,EGFR(E746-A750del),82%
same,remaining binding at 1 µM,WNK4,100%
same,remaining binding at 1 µM,PIK3CG,62%
same,remaining binding at 1 µM,BLK,100%
same,remaining binding at 1 µM,JNK2,96%
same,remaining binding at 1 µM,EGFR(L861Q),99%
same,remaining binding at 1 µM,CAMK1G,100%
same,remaining binding at 1 µM,p38-gamma,100%
same,remaining binding at 1 µM,PAK2,100%
same,remaining binding at 1 µM,ERK1,100%
same,remaining binding at 1 µM,EPHB1,100%
same,remaining binding at 1 µM,PAK6,100%
same,remaining binding at 1 µM,EPHA6,100%
same,remaining binding at 1 µM,SRPK3,100%
same,remaining binding at 1 µM,MLK3,100%
same,remaining binding at 1 µM,FGFR3,100%
same,Percent Control,"FLT3(ITD,D835V)",53 % Ctrl
same,remaining binding at 1 µM,AKT1,87%
same,remaining binding at 1 µM,JNK3,95%
same,remaining binding at 1 µM,MET(M1250T),88%
same,remaining binding at 1 µM,CDK2,100%
